The source made the active and inactive calls. The rule behind the calls is not given here.
Legend:
[1] = target: T1, Tyrosine-protein kinase JAK3 (Homo sapiens, UniProt P52333); assay: Inhibition of recombinant human N-terminal His6-tagged JAK3 (781 to end residues) expressed in baculovirus infected Sf21 cells using STK as substrate by HTRF assay
T1 sequence (P52333 whole entry): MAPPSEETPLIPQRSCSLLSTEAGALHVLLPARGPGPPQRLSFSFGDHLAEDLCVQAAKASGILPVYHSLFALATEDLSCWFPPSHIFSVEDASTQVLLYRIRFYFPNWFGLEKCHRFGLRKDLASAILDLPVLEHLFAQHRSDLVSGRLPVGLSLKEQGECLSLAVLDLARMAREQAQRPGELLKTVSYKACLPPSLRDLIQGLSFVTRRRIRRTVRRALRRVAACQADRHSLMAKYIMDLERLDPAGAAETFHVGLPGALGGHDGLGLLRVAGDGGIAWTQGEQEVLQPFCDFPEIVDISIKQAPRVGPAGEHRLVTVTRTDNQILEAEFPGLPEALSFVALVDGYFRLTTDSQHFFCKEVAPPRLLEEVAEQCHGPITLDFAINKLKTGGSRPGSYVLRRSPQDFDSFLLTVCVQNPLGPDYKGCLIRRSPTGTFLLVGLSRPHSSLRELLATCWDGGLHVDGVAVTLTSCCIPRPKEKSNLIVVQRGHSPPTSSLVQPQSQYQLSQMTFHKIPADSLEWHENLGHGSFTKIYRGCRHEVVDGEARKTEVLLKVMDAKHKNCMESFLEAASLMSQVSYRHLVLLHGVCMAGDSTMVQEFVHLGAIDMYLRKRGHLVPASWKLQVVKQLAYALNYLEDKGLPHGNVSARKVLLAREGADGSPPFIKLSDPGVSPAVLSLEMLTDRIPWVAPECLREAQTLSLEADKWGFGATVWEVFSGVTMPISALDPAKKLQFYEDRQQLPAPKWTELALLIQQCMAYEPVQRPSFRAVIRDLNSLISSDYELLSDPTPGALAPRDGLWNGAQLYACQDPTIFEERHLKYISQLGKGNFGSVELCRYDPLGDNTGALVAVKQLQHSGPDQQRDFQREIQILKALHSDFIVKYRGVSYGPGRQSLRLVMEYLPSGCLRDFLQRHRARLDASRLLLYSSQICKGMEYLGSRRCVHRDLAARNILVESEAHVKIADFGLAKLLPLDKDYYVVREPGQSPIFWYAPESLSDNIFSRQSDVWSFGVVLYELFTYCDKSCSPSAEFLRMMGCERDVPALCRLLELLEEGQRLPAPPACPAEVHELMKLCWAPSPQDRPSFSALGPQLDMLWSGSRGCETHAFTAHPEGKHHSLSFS

Jurkat = assay: Induction of apoptosis in human Jurkat cells assessed as upregulation of cleaved PARP at 1 to 20 uM incubated for 24 hrs by Western blot analysis; assay type: functional, cell-based
[2] = target: Hepatocyte growth factor receptor (Homo sapiens) (UniProt P08581); assay: Inhibition of recombinant human N-terminal His-tagged cMET cytoplasmic domain (956 to 1390 residues) expressed in baculovirus expression system assessed as enzyme residual activity at 0.4 uM using fluorophore-labeled tyrosine 6 peptide as substrate incubated for 60 mins by Z'-LYTE assay relative to control
Sequence of Hepatocyte growth factor receptor (Homo sapiens) (P08581 whole entry, the tested form may be a part): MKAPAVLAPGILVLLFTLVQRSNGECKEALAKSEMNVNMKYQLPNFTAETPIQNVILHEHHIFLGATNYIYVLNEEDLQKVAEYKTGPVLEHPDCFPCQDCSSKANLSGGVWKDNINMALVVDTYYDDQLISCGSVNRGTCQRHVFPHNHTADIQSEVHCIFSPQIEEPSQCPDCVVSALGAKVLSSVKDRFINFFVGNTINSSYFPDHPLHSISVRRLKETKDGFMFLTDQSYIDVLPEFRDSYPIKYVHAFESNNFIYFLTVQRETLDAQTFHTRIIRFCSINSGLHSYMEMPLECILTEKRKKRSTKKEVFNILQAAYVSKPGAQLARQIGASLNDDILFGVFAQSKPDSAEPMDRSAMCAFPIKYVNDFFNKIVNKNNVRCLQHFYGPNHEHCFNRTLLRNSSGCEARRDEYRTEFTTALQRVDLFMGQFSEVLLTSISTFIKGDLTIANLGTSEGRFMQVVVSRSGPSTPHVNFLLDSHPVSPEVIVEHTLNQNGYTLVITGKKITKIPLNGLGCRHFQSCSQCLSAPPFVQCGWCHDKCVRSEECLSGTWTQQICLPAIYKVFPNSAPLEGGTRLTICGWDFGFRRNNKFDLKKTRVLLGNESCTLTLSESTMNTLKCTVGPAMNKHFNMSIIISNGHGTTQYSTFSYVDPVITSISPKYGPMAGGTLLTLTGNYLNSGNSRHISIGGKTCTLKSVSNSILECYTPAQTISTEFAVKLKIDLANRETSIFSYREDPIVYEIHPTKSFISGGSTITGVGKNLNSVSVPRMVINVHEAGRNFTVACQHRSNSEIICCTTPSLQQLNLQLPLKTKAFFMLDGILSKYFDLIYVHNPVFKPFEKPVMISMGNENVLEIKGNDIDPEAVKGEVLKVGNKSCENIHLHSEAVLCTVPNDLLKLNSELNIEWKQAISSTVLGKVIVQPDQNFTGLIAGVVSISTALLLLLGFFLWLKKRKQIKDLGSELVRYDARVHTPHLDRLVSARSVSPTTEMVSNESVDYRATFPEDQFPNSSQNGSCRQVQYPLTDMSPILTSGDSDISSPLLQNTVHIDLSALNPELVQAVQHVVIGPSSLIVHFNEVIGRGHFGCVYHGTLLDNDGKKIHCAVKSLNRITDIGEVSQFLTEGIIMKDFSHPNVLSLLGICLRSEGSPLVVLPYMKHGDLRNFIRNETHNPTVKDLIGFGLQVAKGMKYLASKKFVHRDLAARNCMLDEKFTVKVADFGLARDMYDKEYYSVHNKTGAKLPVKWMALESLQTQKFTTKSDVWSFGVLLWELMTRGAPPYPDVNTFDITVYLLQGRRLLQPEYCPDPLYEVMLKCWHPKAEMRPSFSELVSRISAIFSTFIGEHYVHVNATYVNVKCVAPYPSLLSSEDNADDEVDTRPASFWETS

CCRF-CEM = assay: Growth inhibition of human CCRF-CEM cells incubated for 72 hrs by CellTiter-Glo luminescent cell viability assay; assay type: functional
[3] = target: RAC-alpha serine/threonine-protein kinase (Homo sapiens) (UniProt P31749); assay: Inhibition of recombinant full length human His-tagged AKT1 expressed in baculovirus expression system assessed as enzyme residual activity at 0.4 uM using fluorophore-labeled serine/threonine-06 peptide as substrate incubated for 60 mins by Z'-LYTE assay relative to control
Sequence of RAC-alpha serine/threonine-protein kinase (Homo sapiens) (P31749 whole entry): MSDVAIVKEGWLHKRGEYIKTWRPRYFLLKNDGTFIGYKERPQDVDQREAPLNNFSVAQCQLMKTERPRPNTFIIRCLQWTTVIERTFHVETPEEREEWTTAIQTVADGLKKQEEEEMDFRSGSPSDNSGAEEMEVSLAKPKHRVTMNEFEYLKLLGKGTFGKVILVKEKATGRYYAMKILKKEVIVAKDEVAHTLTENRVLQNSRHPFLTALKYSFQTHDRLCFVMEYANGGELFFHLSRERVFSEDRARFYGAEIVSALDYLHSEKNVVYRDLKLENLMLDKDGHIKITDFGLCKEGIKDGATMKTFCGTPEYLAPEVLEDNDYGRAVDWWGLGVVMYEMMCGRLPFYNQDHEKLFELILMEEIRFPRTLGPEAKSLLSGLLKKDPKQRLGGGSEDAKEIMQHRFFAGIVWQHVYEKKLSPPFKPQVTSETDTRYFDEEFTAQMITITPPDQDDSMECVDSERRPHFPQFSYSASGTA

[4] = target: Mitogen-activated protein kinase 3 (Homo sapiens) (UniProt P27361); assay: Inhibition of recombinant full length human GST-tagged ERK1 expressed in Escherichia coli assessed as enzyme residual activity at 0.4 uM using fluorophore-labeled serine/threonine-3 peptide as substrate incubated for 60 mins by Z'-LYTE assay relative to control
Sequence of Mitogen-activated protein kinase 3 (Homo sapiens) (P27361 whole entry): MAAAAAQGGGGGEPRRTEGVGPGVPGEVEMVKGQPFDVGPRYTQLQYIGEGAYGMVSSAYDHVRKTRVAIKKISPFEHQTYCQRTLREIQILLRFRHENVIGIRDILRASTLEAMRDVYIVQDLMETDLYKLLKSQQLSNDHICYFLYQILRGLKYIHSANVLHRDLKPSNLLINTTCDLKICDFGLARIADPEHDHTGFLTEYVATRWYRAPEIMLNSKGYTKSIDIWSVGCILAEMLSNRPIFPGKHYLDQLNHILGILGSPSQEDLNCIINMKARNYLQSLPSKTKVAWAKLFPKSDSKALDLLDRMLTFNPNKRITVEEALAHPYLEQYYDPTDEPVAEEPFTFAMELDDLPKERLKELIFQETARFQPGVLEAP

MOLT-4 = assay: Growth inhibition of human MOLT4 cells incubated for 72 hrs by CellTiter-Glo luminescent cell viability assay; assay type: functional; conditions: MOLT-4, 72 h
[5] = target: Tyrosine-protein kinase BTK (Homo sapiens, UniProt Q06187); assay: Inhibition of recombinant human full-length N-terminal His6-tagged BTK expressed in baculovirus infected Sf21 insect cells using STK substrate by HTRF assay
Sequence of Tyrosine-protein kinase BTK (Q06187 whole entry): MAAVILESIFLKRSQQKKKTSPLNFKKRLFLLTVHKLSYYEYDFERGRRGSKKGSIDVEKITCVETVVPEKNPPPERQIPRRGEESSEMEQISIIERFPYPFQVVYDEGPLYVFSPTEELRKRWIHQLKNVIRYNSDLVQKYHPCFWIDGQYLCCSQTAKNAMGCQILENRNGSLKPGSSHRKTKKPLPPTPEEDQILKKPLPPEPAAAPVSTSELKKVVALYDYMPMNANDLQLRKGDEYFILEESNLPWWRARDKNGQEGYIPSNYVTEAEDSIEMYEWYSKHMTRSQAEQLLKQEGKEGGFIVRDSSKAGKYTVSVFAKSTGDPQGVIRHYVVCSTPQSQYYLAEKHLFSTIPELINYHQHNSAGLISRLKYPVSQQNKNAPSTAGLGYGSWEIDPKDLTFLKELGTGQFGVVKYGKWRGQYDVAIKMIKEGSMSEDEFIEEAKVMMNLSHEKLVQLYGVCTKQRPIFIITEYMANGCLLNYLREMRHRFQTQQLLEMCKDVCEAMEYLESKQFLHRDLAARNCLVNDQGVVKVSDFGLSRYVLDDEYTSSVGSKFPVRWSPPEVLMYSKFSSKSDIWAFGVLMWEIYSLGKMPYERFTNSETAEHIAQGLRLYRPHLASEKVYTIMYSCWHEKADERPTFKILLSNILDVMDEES

[6] = target: Calcium/calmodulin-dependent protein kinase type IV (Homo sapiens) (UniProt Q16566); assay: Inhibition of recombinant human full length GST-tagged CAMK4 expressed in Escherichia coli expression system assessed as enzyme residual activity at 0.4 uM using fluorophore-labeled serine/threonine-13 peptide as substrate incubated for 60 mins by Z'-LYTE assay relative to control
Sequence of Calcium/calmodulin-dependent protein kinase type IV (Homo sapiens) (Q16566 whole entry, the tested form may be a part): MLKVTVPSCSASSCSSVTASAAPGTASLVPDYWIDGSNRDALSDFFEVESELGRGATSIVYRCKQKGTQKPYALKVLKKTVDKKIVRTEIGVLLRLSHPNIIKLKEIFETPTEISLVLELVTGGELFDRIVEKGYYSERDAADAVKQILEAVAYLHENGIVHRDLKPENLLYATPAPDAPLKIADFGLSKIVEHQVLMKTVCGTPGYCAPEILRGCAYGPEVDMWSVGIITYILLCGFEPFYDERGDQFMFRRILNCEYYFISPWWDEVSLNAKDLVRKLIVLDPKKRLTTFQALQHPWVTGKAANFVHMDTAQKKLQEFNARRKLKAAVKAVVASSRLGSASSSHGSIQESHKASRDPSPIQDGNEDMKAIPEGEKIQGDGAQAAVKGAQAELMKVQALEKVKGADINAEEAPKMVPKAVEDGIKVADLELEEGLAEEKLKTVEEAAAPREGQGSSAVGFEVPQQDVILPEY

[7] = target: Tyrosine-protein kinase Blk (Homo sapiens, UniProt P51451); assay: Inhibition of recombinant full-length human His-tagged BLK cytoplasmic domain expressed in baculovirus expression system assessed as enzyme residual activity at 0.4 uM using fluorophore-labeled tyrosine-1 peptide as substrate incubated for 60 mins by Z'-LYTE assay relative to control
Sequence of Tyrosine-protein kinase Blk (P51451 2-505 limits assumed): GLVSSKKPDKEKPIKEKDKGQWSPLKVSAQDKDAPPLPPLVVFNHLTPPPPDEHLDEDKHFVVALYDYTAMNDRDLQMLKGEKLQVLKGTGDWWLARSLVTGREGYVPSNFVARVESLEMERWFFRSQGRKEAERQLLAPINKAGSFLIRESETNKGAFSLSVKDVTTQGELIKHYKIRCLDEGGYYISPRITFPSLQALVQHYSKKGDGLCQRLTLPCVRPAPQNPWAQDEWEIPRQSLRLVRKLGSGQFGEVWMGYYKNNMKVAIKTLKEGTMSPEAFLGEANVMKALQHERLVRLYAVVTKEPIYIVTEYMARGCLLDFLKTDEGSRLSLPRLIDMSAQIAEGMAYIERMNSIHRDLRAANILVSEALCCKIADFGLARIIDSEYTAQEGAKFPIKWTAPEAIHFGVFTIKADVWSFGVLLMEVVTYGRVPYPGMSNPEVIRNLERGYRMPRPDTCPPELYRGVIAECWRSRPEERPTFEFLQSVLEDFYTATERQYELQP

[8] = target: T2, Tyrosine-protein kinase ITK/TSK (Homo sapiens) (UniProt Q08881); assay: Inhibition of recombinant human N-terminal His6-tagged ITK (352 to 617 residues) expressed in baculovirus infected Sf21 insect cells assessed as inactivation rate constant using STK substrate by HTRF assay
T2 sequence (whole entry): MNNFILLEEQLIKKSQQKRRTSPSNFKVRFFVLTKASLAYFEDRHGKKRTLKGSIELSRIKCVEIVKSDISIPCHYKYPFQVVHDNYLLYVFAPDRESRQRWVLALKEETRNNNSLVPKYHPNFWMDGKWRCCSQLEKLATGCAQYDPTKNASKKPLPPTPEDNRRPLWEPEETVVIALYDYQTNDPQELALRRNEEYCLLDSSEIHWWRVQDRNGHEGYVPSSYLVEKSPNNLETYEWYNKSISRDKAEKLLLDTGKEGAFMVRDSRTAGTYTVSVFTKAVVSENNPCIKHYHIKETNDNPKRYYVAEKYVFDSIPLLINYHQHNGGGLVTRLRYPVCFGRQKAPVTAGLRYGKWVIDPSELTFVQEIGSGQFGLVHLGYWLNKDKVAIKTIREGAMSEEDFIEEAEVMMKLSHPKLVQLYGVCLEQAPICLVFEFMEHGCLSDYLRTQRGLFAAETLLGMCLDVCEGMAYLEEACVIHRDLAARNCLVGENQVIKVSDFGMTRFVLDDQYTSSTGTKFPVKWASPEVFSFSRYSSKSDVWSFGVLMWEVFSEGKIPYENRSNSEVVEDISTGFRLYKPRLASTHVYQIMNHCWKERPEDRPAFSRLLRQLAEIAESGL

[9] = target: Serine/threonine-protein kinase Sgk1 (Homo sapiens) (UniProt O00141); assay: Inhibition of recombinant human GST-tagged SGK1 catalytic domain (60 to 431 residues) expressed in baculovirus expression system assessed as enzyme residual activity at 0.4 uM using fluorophore-labeled serine/threonine-6 peptide as substrate incubated for 60 mins by Z'-LYTE assay relative to control
Sequence of Serine/threonine-protein kinase Sgk1 (Homo sapiens) (O00141 whole entry, the tested form may be a part): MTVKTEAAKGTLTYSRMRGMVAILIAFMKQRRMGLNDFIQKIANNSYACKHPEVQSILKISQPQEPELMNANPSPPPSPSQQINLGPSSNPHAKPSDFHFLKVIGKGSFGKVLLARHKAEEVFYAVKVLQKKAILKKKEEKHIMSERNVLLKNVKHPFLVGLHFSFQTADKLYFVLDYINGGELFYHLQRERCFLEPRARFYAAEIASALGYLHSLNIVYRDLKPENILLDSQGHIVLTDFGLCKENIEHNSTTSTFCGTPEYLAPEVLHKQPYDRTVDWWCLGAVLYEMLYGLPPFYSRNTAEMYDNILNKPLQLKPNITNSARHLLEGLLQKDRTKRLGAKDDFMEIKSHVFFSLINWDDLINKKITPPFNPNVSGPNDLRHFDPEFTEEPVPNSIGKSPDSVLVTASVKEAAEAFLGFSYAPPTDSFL

IC50 [1]: 123 nM | Activity [2]: 79% | GI50 (CCRF-CEM): 127 nM | Activity [3]: 96% | Activity [4]: 98.7% | GI50 (MOLT-4): 167 nM | IC50 [5]: 996 nM | Activity [6]: 107% | Activity [7]: 9% | K [8]: 0.038 min⁻¹ | Activity [9]: 97%
SMILES: C=CC(=O)N1CCC(Oc2nc(Nc3ccc(N4CCOCC4)cc3)nc3[nH]cc(-c4cncc(NC)n4)c23)CC1
Activity (Jurkat): Active
